ChEMBL document CHEMBL3272144, “Application of the Free-Wilson technique to structurally related series of homologues. Quantitative structure-activity relationship studies of narcotic analgetics” (1977)

species: Mus musculus; experiment: Analgesic activity in mouse by hot-plate method; format: functional

Row | Structure (SMILES) | log(1/C)
1 | C[C@@H]1C2Cc3ccc(O)cc3[C@@]1(c1ccccc1)CCN2C (stereo in doubt; 88) | 1.99
2 | CN1CC[C@@]2(c3ccccc3)CC1Cc1ccccc12 (stereo in doubt; 89) | 1.87
3 | C=CC#CCN1CC[C@]2(CC)c3cc(O)ccc3CC1[C@@H]2CC (stereo in doubt; 90) | 1.79
4 | CC[C@H]1C2Cc3ccc(OC)cc3[C@@]1(CC)CCN2C (stereo in doubt; 91) | 1.62
5 | C[C@@H]1C2Cc3ccc(O)cc3[C@@]1(C)CCN2C (stereo in doubt; 92) | 1.6
6 | CC[C@H]1C2Cc3ccc(O)cc3[C@@]1(CC)CCN2C (stereo in doubt; 93) | 1.51
7 | CCC[C@@]12CCN(C)C(Cc3ccc(O)cc31)[C@@H]2C (stereo in doubt; 94) | 1.38
8 | CC[C@@H]1C2Cc3ccc(O)cc3[C@@]1(CC)CCN2C (stereo in doubt; 95) | 1.31
9 | CN1CC[C@H]2CC1Cc1ccc(O)cc12 (stereo in doubt; 96) | 1.22
10 | CC[C@H]1C2Cc3ccc(O)cc3[C@@]1(C)CCN2C (stereo in doubt; 97) | 1.2
11 | CN1CC[C@@]2(C)CC1Cc1ccc(O)cc12 (stereo in doubt; 98) | 1.04
12 | CC[C@@]12CCN(C)C(Cc3ccc(O)cc31)C2 (stereo in doubt; 99) | 1.03
